Measurements from patent US20250163119A1, “COMPOUNDS FOR THE TREATMENT OF DIABETES OR OBESITY” (Eli Lilly and Company, priority 2023, published 2025).
Values joined by “and” are separate entries in the source; they are usually repeats but may differ in a detail not shown here. Equal entries are not always repeated. Where two headings read alike, the source gives them in different places. Blank lines part the entries; values can stand above or below the molecule they belong to. *1 amine or outer side, *2 acyl side, *3 side chain or, on linkers, in order; H or OH if unused. Where a SMILES comes first, the peptide text is derived from it. Side-chain parts run from the residue outwards. [ ]: non-standard residue; d: D form. The star is where a group is joined. C20 diacid = O=C(O)CCCCCCCCCCCCCCCCCCC(=O)*; γGlu = O=C(O)[C@H](CCC(=O)[*:2])N[*:1]; εLys = N[C@@H](CCCCN[*:1])C(=O)[*:2]; NMeI = CC[C@H](C)[C@H](NC)C(=O)O; αMeL = CC(C)C[C@](C)(N)C(=O)O; AEEA = NCCOCCOCC(=O)O; Aib = CC(C)(N)C(=O)O

What was measured:
human CRHR1 = target: T1, human CRHR1 (Homo sapiens, UniProt P34998); test: Human CRHR1 cAMP assay (HTRF) in HEK293 cells stably expressing human CRHR1; format: cell-based; conditions: HEK293 cells overexpressing human CRHR1; relative EC50, maximum 66 nM human UCN1; mean ± SE; read-out: hCRHR1 cAMP EC50 (pM, ± SE)
T1 construct: expressed in transfected cells
T1 sequence (P34998 24-415): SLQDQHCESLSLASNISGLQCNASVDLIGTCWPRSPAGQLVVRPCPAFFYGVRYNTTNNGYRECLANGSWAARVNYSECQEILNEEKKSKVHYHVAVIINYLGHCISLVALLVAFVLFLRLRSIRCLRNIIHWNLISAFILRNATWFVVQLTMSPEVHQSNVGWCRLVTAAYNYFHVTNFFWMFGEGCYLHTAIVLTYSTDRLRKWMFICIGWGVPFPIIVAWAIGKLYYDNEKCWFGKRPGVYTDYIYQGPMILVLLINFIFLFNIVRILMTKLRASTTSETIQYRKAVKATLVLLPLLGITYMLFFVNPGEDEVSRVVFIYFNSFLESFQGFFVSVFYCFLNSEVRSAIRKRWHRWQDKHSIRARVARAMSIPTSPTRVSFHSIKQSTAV
Outline: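 HEK293 cells stably expressing human CRHR1 (25,000/well) or CRHR2b (5,000/well) were treated with peptides in MEM with 0.1% casein, 5 mM HEPES pH 7.4 and 0.25 mM IBMX. Incubation was 1 h at 37 °C for CRHR1 and 30 min at room temperature for CRHR2. cAMP was measured by HTRF (665/620 nm) against a per-experiment cAMP standard curve.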

[1] = Pharmacokinetics in Sprague Dawley rats, single subcutaneous or intravenous dose (incl. 10, 30, 100 nmol/kg dose response); format: in vivo; conditions: for Tmax: read-out: Tmax
[2] = male, Sprague Dawley, rat, plasma, iv, 197 nmol/kg, single intravenous dose 197 nmol/kg, individual animal
[3] = male, Sprague Dawley, rat, plasma, iv, 197 nmol/kg, single intravenous dose 197 nmol/kg, mean
[4] = male, Sprague Dawley, rat, plasma, sc, 197 nmol/kg, single subcutaneous dose 197 nmol/kg, individual animal
[5] = male, Sprague Dawley, rat, plasma, sc, 197 nmol/kg, single subcutaneous dose 197 nmol/kg, mean
[6] = single intravenous dose 197 nmol/kg, male Sprague Dawley rats, individual animal
[7] = single subcutaneous dose 197 nmol/kg, male Sprague Dawley rats, individual animal

EC50 (human CRHR1): > 1e+07 pM
clearance [1, 2]: 1.66 mL/h/kg
half-life [1, 2]: 41.7 h
clearance [1, 3]: 1.47 mL/h/kg
half-life [1, 3]: 45.5 h
half-life [1, 4]: 52.8 h
CL/F ([1]; male, Sprague Dawley, rat, plasma, sc, 197 nmol/kg, single subcutaneous dose 197 nmol/kg, individual animal, read-out: CL/F (converted)): 2.35 mL/h/kg
Tmax [1, 4]: 24 h
half-life [1, 5]: 47 h
CL/F ([1]; male, Sprague Dawley, rat, plasma, sc, 197 nmol/kg, single subcutaneous dose 197 nmol/kg, mean, read-out: CL/F (converted)): 2.48 mL/h/kg
Tmax [1, 5]: 24 h
AUC0-inf ([1]; rat, plasma, sc, single subcutaneous dose 197 nmol/kg, male Sprague Dawley rats, mean, read-out: AUC0-inf): 89.9 µM·h
Cmax ([1]; rat, plasma, sc, single subcutaneous dose 197 nmol/kg, male Sprague Dawley rats, mean, read-out: Cmax): 815 nM
AUC0-inf ([1]; rat, plasma, single intravenous dose 197 nmol/kg, male Sprague Dawley rats, mean, read-out: AUC0-inf): 136 µM·h
C0 ([1]; rat, plasma, single intravenous dose 197 nmol/kg, male Sprague Dawley rats, mean, read-out: C0): 4270 nM
CL [1, 6]: 1.30 mL/h/kg and 1.45 mL/h/kg
T1/2 [1, 6]: 45.2 h and 49.6 h
AUC0-inf [1, 7]: 96.8 µM·h and 82.9 µM·h
CL/F [1, 7]: 2.61 mL/h/kg
Cmax [1, 7]: 881 nM and 749 nM
T1/2 [1, 7]: 41.1 h
Molecule: CC[C@H](C)[C@H](NC(C)=O)C(=O)N[C@H](C(=O)N[C@H](C(=O)N[C@@H](CO)C(=O)N[C@@](C)(CC(C)C)C(=O)N[C@@H](CC(=O)O)C(=O)N[C@@H](C(=O)N1CCC[C@H]1C(=O)N[C@H](C(=O)NCC(=O)N[C@@](C)(CC(C)C)C(=O)N[C@@H](CC(C)C)C(=O)N[C@@H](CCC(N)=O)C(=O)N[C@H](C(=O)N[C@@H](CCCCN)C(=O)N[C@@H](CC(C)C)C(=O)N[C@@H](CCC(=O)O)C(=O)N[C@@H](CCC(N)=O)C(=O)N[C@@H](CCC(=O)O)C(=O)N[C@@H](CCCNC(=N)N)C(=O)N[C@@H](C)C(=O)N[C@@H](CCC(=O)O)C(=O)N[C@@H](CCCCN)C(=O)N[C@@H](C)C(=O)N[C@@H](CCCNC(=N)N)C(=O)N[C@@H](CCC(N)=O)C(=O)N[C@@H](CCC(N)=O)C(=O)N[C@@H](C)C(=O)N[C@@H](CCCCNC(=O)COCCOCCNC(=O)COCCOCCNC(=O)CC[C@H](NC(=O)CCCCCCCCCCCCCCCCCCC(=O)O)C(=O)O)C(=O)N[C@@H](CCC(=O)O)C(=O)N[C@@H](CC(N)=O)C(=O)N[C@H](C(=O)N[C@@H](CCC(=O)O)C(=O)N[C@H](C(=O)N[C@@H](CC(C)C)C(=O)N[C@@H](C)C(=O)N[C@@H](CCC(N)=O)C(=O)N[C@H](C(N)=O)C(C)C)[C@@H](C)CC)[C@@H](C)O)[C@@H](C)CC)[C@@H](C)O)C(C)C)[C@@H](C)O)C(C)C [SEQ ID NO: 29, Ac-IVTS αMeL D (D-Val) PTG αMeL LQIKLEQERAEKARQ QAK((2-[2-(2-Amino-ethoxy)-ethoxy]-acetyl)2-γE-CO-(CH2)18-CO2H)ENTEILAQV-NH2] (Ac-IVTS[αMeL]D[dV]PTG[αMeL]LQIKLEQERAEKARQQAK([AEEA-AEEA-γGlu-C20 diacid])ENTEILAQV-NH2)
AUC0-inf [1, 6]: 119 µM·h and 152 µM·h and 136 µM·h
C0 [1, 6]: 6910 nM and 4840 nM and 1050 nM

EC50 (human CRHR1): > 1e+07 pM
Molecule: CC[C@H](C)[C@H](NC)C(=O)N[C@H](C(=O)N[C@@H](CC(C)C)C(=O)N[C@@H](CO)C(=O)N[C@@H](CC(C)C)C(=O)N[C@@H](CC(=O)O)C(=O)N[C@H](C(=O)N1CCC[C@H]1C(=O)N[C@H](C(=O)NCC(=O)N[C@@H](CC(C)C)C(=O)N[C@@H](CC(C)C)C(=O)N[C@@H](CCC(N)=O)C(=O)N[C@H](C(=O)N[C@@H](CC(C)C)C(=O)N[C@@H](CC(C)C)C(=O)N[C@@H](CCC(=O)O)C(=O)N[C@@H](CCC(N)=O)C(=O)N[C@@H](CCC(=O)O)C(=O)N[C@@H](CCCCN)C(=O)N[C@@H](CCC(N)=O)C(=O)N[C@@H](CCC(=O)O)C(=O)N[C@@H](CCCCN)C(=O)N[C@@H](CCC(=O)O)C(=O)N[C@@H](CCCCN)C(=O)N[C@@H](CCC(N)=O)C(=O)N[C@@H](CCC(N)=O)C(=O)N[C@@H](C)C(=O)N[C@@H](CCCCNC(=O)COCCOCCNC(=O)COCCOCCNC(=O)CC[C@H](NC(=O)CC[C@H](NC(=O)CCCCCCCCCCCCCCCCCCC(=O)O)C(=O)O)C(=O)O)C(=O)N[C@H](C(=O)N[C@@H](CC(N)=O)C(=O)N[C@@H](C)C(=O)N[C@@H](CCC(N)=O)C(=O)N[C@H](C(=O)N[C@@H](CC(C)C)C(=O)N[C@@H](C)C(=O)N[C@@H](CCC(N)=O)C(=O)N[C@H](C(N)=O)C(C)C)[C@@H](C)CC)[C@@H](C)O)[C@@H](C)CC)[C@@H](C)CC)C(C)C)C(C)C [SEQ ID NO: 54] (H-[NMeI]VLSLDVPIGLLQILLEQEKQEKEKQQAK([AEEA-AEEA-γGlu-γGlu-C20 diacid])TNAQILAQV-NH2)

EC50 (human CRHR1): > 1e+07 pM
Molecule: Ac-GSPSIVTS[αMeL]DVPT[Aib][αMeL]LQKLLEQERAEKARQQAK([γGlu-AEEA-εLys-C20 diacid])EAAEILAQV-NH2 [SEQ ID NO: 2, Ac-GSPSIVTS αMeL DVPT Aib αMeL LQKLLEQERAEKARQQAK(γE-(2-[2-(2-Amino-ethoxy)-ethoxy]-acetyl)-ϵK-CO-(CH2)18-CO2H)EAAEILAQV-NH2]

EC50 (human CRHR1): > 1e+07 pM
Molecule: Ac-PPPIVTS[αMeL]DVPT[Aib][αMeL]LQKLLEQERAEKARQQAK([γGlu-AEEA-εLys-C20 diacid])EAAEILAQV-NH2 [SEQ ID NO: 48, Ac-PPPIVTS αMeL DVPT Aib αMeL LQKLLEQERAEKARQQAK(γE-(2-[2-(2-Amino-ethoxy)-ethoxy]-acetyl)-ϵK-CO-(CH2)18-CO2H)EAAEILAQV-NH2]
